This is an account of results in paper PMC10179475, “Flavone and Hydroxyflavones Are Ligands That Bind the Orphan Nuclear Receptor 4A1 (NR4A1)” (International Journal of Molecular Sciences, 2023).

Molecules are shown by their SMILES. “Also recorded” adds a separate entry of the source. Like-named read-outs stand apart in the source and are kept apart here.

The test system of one series is rhabdomyosarcoma tumor. Also on record: method as in PMID 34906197. The conditions noted are these: athymic mouse xenograft model; cited from earlier work.
The target of series [1] is T1, GAL4-NR4A1 (Homo sapiens, UniProt P22736). Nature of the series: NR4A1-dependent transactivation, GAL4-NR4A1/UAS-luc, Panc1 cells. It is filed as cell-based. Also on record: expressed in transfected cells; host or cells: Panc1 pancreatic cancer cells; Rh30 rhabdomyosarcoma cells. To be noted: for effect on luciferase activity: 25 or 50 µM, p < 0.05. The procedure: Figure 3 Hydroxyflavonoid activation of NR4A1-dependent transactivation. Panc1 cells were cotransfected with GAL4-NR4A1 and UAS-luciferase constructs, cells were treated with 25 and 50 µM hydroxyflavonoids and luciferase activity (normalized to β-galactosidase activity) was determined. Results were determined in triplicate for each concentration and are plotted as mean values ±SE. Significant induction or inhibition (p < 0.05) of luciferase activity is illustrated (*).
The UAS-luciferase reporter gene containing 5 GAL4 binding sites and the GAL4-NR4A1 chimera containing the GAL4 DNA-binding domain which linked to the ligand-binding domain (LBD) of NR4A1 were used in transactivation assays in Panc1 pancreatic cancer cells. Panc-1 cells were plated in a 24-well plate (3 × 10^4 cells/well) and grown for 24 h. Cells were then co-transfected with each construct (250 ng) and the β-gal expression construct (25 ng) using GeneJuice (Novagen, Madison, WI, USA) in accordance with the manufacture’s protocol. The medium was removed after 18 h and replaced with a 2.5% charcoal-stripped FBS-supplemented medium containing either DMSO or flavonoids (25 and 50 µM) in DMSO. After 24 h, cells were then lysed, and cell extracts were processed to measure luciferase activity. Luciferase activity was normalized by dividing the β-gal expression and each treatment was determined in three independent experiments. Data were expressed as mean ± SE and significant (p < 0.05) effects were noted.

Series [2] concerns the target ligand-binding domain (LBD) of NR4A1 (Homo sapiens, UniProt P22736). Put plainly: Direct-binding fluorescence assay (quenching of NR4A1 tryptophan fluorescence). The procedure:
(§1) Tryptophan fluorescence spectra were obtained essentially as described. Briefly, the ligand-binding domain of NR4A1 at the final concentration of 0.5 µmol/L in 1.0 mL of phosphate-buffered saline (PBS, pH 7.4) was used for fluorescence measurements. The protein was incubated for 3 min at 25 °C in a temperature-controlled (Quantum Northwest TC125) fluorescence spectrophotometer (Varian Cary Eclipse). The fluorescence spectra were obtained using an excitation wavelength of 285 nm (excitation slit width = 5 nm) and an emission wavelength range of 300–420 nm (emission slit width = 5 nm). Aliquots (0.1 µL/aliquot) of the ligand (10 mmol ligand/L ethanol) were then added to the cuvette containing NR4A1 to reach a final ligand concentration of up to 60 µmol/L. After each aliquot of the ligand, the NR4A1/ligand solution was incubated at 25 °C for 3 min and the loss of tryptophan fluorescence was measured as described above. The addition of DMSO only (up to a final volume of 3.0 µL) had no effect on NR4A1 tryptophan fluorescence. […] Fluorescence intensity at each ligand concentration was used to correct the NR4A1 tryptophan fluorescence intensity as described.

For series [3], the target named is NR4A1 protein (ligand-binding domain: LBD) (Homo sapiens, UniProt P22736). Put plainly: Isothermal titration calorimetry (ITC) binding assay.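 Further: ligand titrated into 20 µmol/L NR4A1 LBD in sodium phosphate buffer pH 7.4 with glycerol and ethanol, thirty injections, heat flow corrected for ligand-into-buffer dilution.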
Series [4] addresses T1, GAL4-NR4A1. Nature of the series: NR4A1-dependent transactivation, GAL4-NR4A1/UAS-luc, Rh30 cells. Details: expressed in transfected cells; host or cells: Rh30 rhabdomyosarcoma cells. To be noted: for effect on NR4A1-dependent transactivation: 50 µM. It is filed as cell-based.
Series [5] addresses T1, GAL4-NR4A1. Details: expressed in transfected cells; host or cells: Rh30 rhabdomyosarcoma cells; method as in PMID 34906197. The conditions noted are these: Rh30 rhabdomyosarcoma cells, same constructs, cited from earlier work.
In a further series the test system is ERα. Also on record: method as in PMID 18095219. The conditions noted are these: cited from earlier work.
A short description of series [6]: Solubility in the fluorescence assay. The conditions noted are these: aqueous. It is filed as physicochemical. The method, then:
as §1

[7] abbreviates: fluorescence (Trp quenching) assay, Table 1 head prints no unit, µM from text and Figure 5, read-out: KD, direct binding assay.
The mark [8] stands for this setting: fluorescent binding assay, read-out: KD (Figure 1).

Sequence of ligand-binding domain (LBD) of NR4A1 (P22736 360-595 limits assumed): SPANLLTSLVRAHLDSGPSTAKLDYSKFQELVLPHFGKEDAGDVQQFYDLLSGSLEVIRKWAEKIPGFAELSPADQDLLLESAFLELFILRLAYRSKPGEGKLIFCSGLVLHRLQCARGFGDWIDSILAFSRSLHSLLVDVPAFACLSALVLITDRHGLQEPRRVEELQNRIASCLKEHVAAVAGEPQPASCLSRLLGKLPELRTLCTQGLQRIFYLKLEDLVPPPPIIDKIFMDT
T1 sequence (P22736 360-595 limits assumed): as above
Sequence of NR4A1 protein (ligand-binding domain: LBD) (P22736 360-595 limits assumed): as above

Consider `O=c1c(O)c(-c2ccc(O)c(O)c2)oc2cc(O)cc(O)c12`, for which the tumor growth result with rhabdomyosarcoma tumor was “inhibited tumor growth”. The “effect on luciferase activity” value on GAL4-NR4A1 [1] is “significantly induced luciferase activity”. In addition, the Kd in series [2] (setting [7]) came out at 0.81 µM; in series [3] (25 °C, read-out: ITC assay Kd1), 350 nM. Further, the “ITC assay ΔG” value in series [3] (25 °C) is -8.8 kcal/mol. Besides, the “effect on NR4A1-dependent transactivation” value at GAL4-NR4A1 [4] is listed as “decreased transactivation”. Also, the “effect on luciferase activity / NR4A1-dependent transactivation (previous studies)” value at GAL4-NR4A1 [5] (listed as quercetin) is given as “decreased luciferase activity; also recorded: decreased NR4A1-dependent transactivation”. Moreover, the ER binding entry in the series with ERα was “did not bind ERα”.
Regarding `O=c1c(O)c(-c2ccc(O)c(O)c2)oc2cccc(O)c12` [3,5,3′,4-tetrahydroxyflavone], the “effect on NR4A1-dependent transactivation” value on GAL4-NR4A1 [4] was “potent inhibition”.
In the case of `O=c1c(O)c(-c2ccccc2)oc2cc(O)cc(O)c12` [3,5,7 -Trihydroxyflavone (Galangin), 3,5,7-Trihydroxyflavone], the “effect on luciferase activity” value on GAL4-NR4A1 [1] was “decreased luciferase activity”. The Kd was 0.36 µM in series [2] (setting [7]) and 1 nM in series [3] (25 °C, read-out: ITC assay Kd1). Besides, the “ITC assay ΔG” value in series [3] (25 °C) was -12.2 kcal/mol. Also, the “effect on NR4A1-dependent transactivation” value at GAL4-NR4A1 [4] is listed as “potent inhibition”.
In the case of `O=c1c(O)c(-c2ccc(O)cc2)oc2cc(O)cc(O)c12` [3,5,7,4′-Tetrahydroxyflavone], the tumor growth entry with rhabdomyosarcoma tumor is on record as “inhibited tumor growth”. The Kd was found to be 3.1 µM in series [2] (setting [7]) and 97100 nM in series [3] (25 °C, read-out: ITC assay Kd1). Further, in series [3] (25 °C), the “ITC assay ΔG” value is -5.47 kcal/mol. The “effect on NR4A1-dependent transactivation” value on GAL4-NR4A1 [4] is “decreased transactivation”. For the same compound, the “effect on luciferase activity / NR4A1-dependent transactivation (previous studies)” value at GAL4-NR4A1 [5] (listed as kaempferol) is recorded as “decreased luciferase activity; also recorded: decreased NR4A1-dependent transactivation”.
For the compound `O=c1c(O)c(-c2ccccc2)oc2ccc(O)cc12` [3,6-Dihydroxyflavone], the Kd in series [2] (setting [7]) was 0.66 µM; in series [3] (25 °C, read-out: ITC assay Kd1), 444000 nM. The “ITC assay ΔG” value in series [3] (25 °C) is -4.57 kcal/mol. Also, the “effect on NR4A1-dependent transactivation” value at GAL4-NR4A1 [4] is listed as “potent inhibition”.
Consider `O=c1c(O)c(-c2ccccc2)oc2cc(O)ccc12` [3,7-Dihydroxyflavone], for which the Kd in series [2] (setting [7]) is 2.8 µM; in series [3] (25 °C, read-out: ITC assay Kd1) it was 180 nM. Besides, the “ITC assay ΔG” value in series [3] (25 °C) is -9.2 kcal/mol. For the same compound, the “effect on NR4A1-dependent transactivation” value at GAL4-NR4A1 [4] is reported as “potent inhibition”.
Regarding `O=c1c(O)c(-c2ccccc2)oc2ccccc12` [3-Hydroxyflavone], the results for the solubility result in series [6] and in series [6] (listed as 3-hydroxyflavone) were “insoluble” and “aqueous insolubility”, respectively. The “ITC assay ΔG” value in series [3] (25 °C) was -10.4 kcal/mol. Further, in series [3] (25 °C, read-out: ITC assay Kd1), the Kd is 22.5 nM.
Consider `O=c1cc(-c2ccc(O)c(O)c2)oc2ccccc12` [3′,4′-Dihydroxyflavone], for which the “induction of luciferase activity” value on GAL4-NR4A1 [1] and on GAL4-NR4A1 [4] was less than 2.4 fold in each case. Also, the Kd in series [2] (setting [7]) stood at 0.96 µM; in series [3] (25 °C, read-out: ITC assay Kd1) it was 9500 nM. Also, the “ITC assay ΔG” value in series [3] (25 °C) is -6.86 kcal/mol.
Regarding `O=c1cc(-c2cccc(O)c2)oc2ccccc12` [3′-Hydroxyflavone], the Kd in series [2] (setting [7]) is 45.8 µM; in series [2] (setting [8]) it was 45.8 µM; in series [3] (25 °C, read-out: ITC assay Kd1), 330 nM. The “ITC assay ΔG” value in series [3] (25 °C) is -8.84 kcal/mol.
Regarding `O=c1cc(-c2ccc(O)cc2)oc2ccccc12` [4′-Hydroxyflavone], at GAL4-NR4A1 [1], the “effect on luciferase activity” value is given as “significantly induced luciferase activity”. Moreover, the Kd in series [2] (setting [7]) is 13 µM; in series [3] (25 °C, read-out: ITC assay Kd1) it was 150 nM. In addition, the “ITC assay ΔG” value in series [3] (25 °C) was -9.42 kcal/mol. On GAL4-NR4A1 [4], the “effect on NR4A1-dependent transactivation” value is “potent inhibition”.
With `O=c1cc(-c2ccccc2)oc2cc(O)c(O)c(O)c12` [5,6,7 -Trihydroxyflavone (Baicalein), 5,6,7-Trihydroxyflavone], the “effect on luciferase activity” value at GAL4-NR4A1 [1] was “significantly induced luciferase activity”. The Kd came out at 1.85 µM in series [2] (setting [7]) and 130 nM in series [3] (25 °C, read-out: ITC assay Kd1). Further, the “ITC assay ΔG” value in series [3] (25 °C) is -9.42 kcal/mol.
With `O=c1cc(-c2ccccc2)oc2cc(O)cc(O)c12` [5,7 Dihydroxyflavone], the Kd amounted to 11.3 µM in series [2] (setting [7]) and 1 nM in series [3] (25 °C, read-out: ITC assay Kd1). Further, the “ITC assay ΔG” value in series [3] (25 °C) is -12.3 kcal/mol.
In the case of `O=c1cc(-c2ccc(O)c(O)c2)oc2cc(O)cc(O)c12` [5,7,3′4′-Tetrahydroxyflavone (Luteolin), 5,7,3′4′-Tetrahydroxyflavone], the “effect on luciferase activity” value on GAL4-NR4A1 [1] is given as “significantly induced luciferase activity”. Moreover, the Kd in series [2] (setting [7]) is 5.1 µM; in series [3] (25 °C, read-out: ITC assay Kd1), 19 nM. The “ITC assay ΔG” value in series [3] (25 °C) is -10.5 kcal/mol.
As for `O=c1cc(-c2ccc(O)cc2)oc2cc(O)cc(O)c12` [5,7,4′-Trihydroxyflavone (Apigenin), 5,7,4′-Trihydroxyflavone], the Kd in series [2] (setting [7]) was 1.77 µM; in series [2] (setting [8]), 0.08 µM; in series [3] (25 °C, read-out: ITC assay Kd1), 570 nM. Besides, the “ITC assay ΔG” value in series [3] (25 °C) was -8.53 kcal/mol. Also, the “effect on NR4A1-dependent transactivation” value at GAL4-NR4A1 [4] was “decreased transactivation”.
As for `O=c1cc(-c2ccccc2)oc2cccc(O)c12` [5-Hydroxyflavone], the Kd in series [2] (setting [7]) was 1.4 µM; in series [3] (25 °C, read-out: ITC assay Kd1) it was 18000 nM. The “ITC assay ΔG” value in series [3] (25 °C) is -6.45 kcal/mol.
As to `O=c1cc(-c2ccccc2)oc2ccc(O)cc12` [6-Hydroxyflavone], the “effect on luciferase activity” value at GAL4-NR4A1 [1] was “significantly induced luciferase activity”. Moreover, the Kd came to 12.5 µM in series [2] (setting [7]) and 32 nM in series [3] (25 °C, read-out: ITC assay Kd1). Moreover, the “ITC assay ΔG” value in series [3] (25 °C) was -10.3 kcal/mol. For the same compound, the “effect on NR4A1-dependent transactivation” value at GAL4-NR4A1 [4] is recorded as “decreased transactivation”.
In the case of `O=c1cc(-c2cccc(O)c2)oc2cc(O)ccc12` [7,3′-Dihydroxyflavone], the Kd stood at 21.4 µM in series [2] (setting [7]) and 170 nM in series [3] (25 °C, read-out: ITC assay Kd1). In series [3] (25 °C), the “ITC assay ΔG” value is -9.25 kcal/mol.
`O=c1cc(-c2ccc(O)cc2)oc2cc(O)ccc12` [7,4’-Dihydroxyflavone]: the Kd in series [2] (setting [7]) amounted to 9.1 µM; in series [3] (25 °C, read-out: ITC assay Kd1), 490 nM. In addition, the “ITC assay ΔG” value in series [3] (25 °C) was -8.63 kcal/mol.
Consider `O=c1cc(-c2ccccc2)oc2c(O)c(O)ccc12` [7,8-Dihydroxyflavone], for which the Kd in series [2] (setting [7]) was determined as 17.6 µM; in series [3] (25 °C, read-out: ITC assay Kd1), 42 nM. Also, the “ITC assay ΔG” value in series [3] (25 °C) is -10.1 kcal/mol.
As to `O=c1cc(-c2ccccc2)oc2cc(O)ccc12` [7-Hydroxyflavone], the “induction of luciferase activity” value on GAL4-NR4A1 [1] and on GAL4-NR4A1 [4] was less than 2.4 fold in each case. For the same compound, the “effect on luciferase activity” value at GAL4-NR4A1 [1] was “significantly induced luciferase activity”. Also, the Kd in series [2] (setting [7]) was determined as 7.4 µM; in series [3], 42 nM. In addition, the “ITC assay ΔG” value in series [3] (25 °C) was -10.1 kcal/mol.
Regarding `Clc1cc(Cl)cc(C(c2c[nH]c3ccccc23)c2c[nH]c3ccccc23)c1` [DIM-3,5-CI2, 1,1-bis(3′-indolyl)-1-(3,5-dichlorophenyl)methane, reference compound], the “effect on NR4A1-dependent transactivation” value at GAL4-NR4A1 [4] is listed as “decreased transactivation”.
As for `O=c1cc(-c2ccccc2)oc2ccccc12` [Flavone], the Kd in series [2] (setting [7]) turned out to be 3.4 µM; in series [3] (25 °C, read-out: ITC assay Kd1) it was 75 nM. For the same compound, the “ITC assay ΔG” value in series [3] (25 °C) was -9.73 kcal/mol.
